Paper PMC6137088, “The Role of Outer Membrane Proteins and Lipopolysaccharides for the Sensitivity of Escherichia coli to Antimicrobial Peptides” (Frontiers in Microbiology, 2018)
In brackets after ≈: the same amount, converted by molar mass. Where no end group is shown, it is not given here.

Columns and labels:
[1] = test system: E. coli strains representing core types K12, R1, R2, R3, R4 and ATCC25922; assay type: cell-based, Escherichia coli; conditions: span over isolates and core types of Table 4
Excerpt: (§1) The E. coli strains 470, F632, F653 and F2513 were kindly provided by Prof. H. Brade and Prof. S. Muller-Loennies, Research Center Borstel, Leipniz-Center for Medicine and Biosciences, Germany. E. coli BW25113 (CGSC#:7636), a derivative of F^−, λ^− E. coli K12 strain BD792 is the wild-type strain which was used in the generation of the KEIO collection and ordered from the Coli Genetic Stock Centre (CGSC, Yale University). E. coli JW3596, E. coli JW3024, E. coli JW3595, E. coli JW3606, E. coli JW0212, E. coli JW1667, E. coli JW0554, E. coli JW3605 and E. coli JW3600 are isogenic mutants of waaC, waaE, waaF, waaG, gmhA (lpcA), lpp, ompT, waaP, or waaY derived from the parental strain E. coli BW25113 and were ordered from the KEIO collection (Baba et al., [2006]). E. coli ATCC25922 is a clinical isolate, serotype O6, often used as control strain in antimicrobial susceptibility testing was ordered from the ATCC strain collection. All strains were grown in Mueller-Hinton-II medium and incubation took place aerobically at 37°C for 18–20 h.
(§2) The minimum inhibitory concentrations (MICs) of the AMPs were measured in 96-well microtiter plates according the Clinical and Laboratory Standards Institute [CLSI, formerly National Committee for Clinical Laboratory Standards (NCCLS)] (Wikler et al., [2009]). Liquid Mueller-Hinton-II medium containing increasing concentrations of AMPs is inoculated with a defined number of cells (~10^5 CFUs/ml) in 96-well microtiter plates (polypropylene). Each microtiter plate includes a positive growth control and a negative control (sterile control). After incubation, the minimal inhibitory concentration (MIC) is determined by the lowest concentration showing no visible growth. All plates were incubated for 16–20 h.

[2] = test system: E. coli BW25113 waaP::kan; assay type: cell-based, Escherichia coli; conditions: Table 3; BW25113 waaP::kan; Mueller-Hinton-II, 16–20 h; duplicates (*) or triplicates
Excerpt: as §1, §2

E. coli F653 (R3) = assay type: cell-based, Escherichia coli; conditions: Table 4; E. coli F653 (R3 prototype, rough LPS); triplicates
Excerpt: as §1, §2

[3] = test system: E. coli BW25113 gmhA::kan; assay type: cell-based, Escherichia coli; conditions: Table 3; BW25113 gmhA::kan; Mueller-Hinton-II, 16–20 h; duplicates (*) or triplicates
Excerpt: as §1, §2

[4] = test system: E. coli BW25113 waaF::kan; assay type: cell-based, Escherichia coli; conditions: Table 3; BW25113 waaF::kan; Mueller-Hinton-II, 16–20 h; duplicates (*) or triplicates
Excerpt: as §1, §2

[5] = test system: E. coli BW25113 waaE::kan; assay type: cell-based, Escherichia coli; conditions: Table 3; BW25113 waaE::kan; Mueller-Hinton-II, 16–20 h; duplicates (*) or triplicates
Excerpt: as §1, §2

[6] = test system: E. coli BW25113 waaC::kan; assay type: cell-based, Escherichia coli; conditions: Table 3; BW25113 waaC::kan; Mueller-Hinton-II, 16–20 h; duplicates (*) or triplicates
Excerpt: as §1, §2

E. coli F2513 (R4) = assay type: cell-based, Escherichia coli; conditions: Table 4; E. coli F2513 (R4 prototype, rough LPS); triplicates
Excerpt: as §1, §2

E. coli F470 (R1) = assay type: cell-based, Escherichia coli; conditions: Table 4; E. coli F470 (R1 prototype, rough LPS); triplicates
Excerpt: as §1, §2

E. coli BW25113 = assay type: cell-based, Escherichia coli; conditions: for MIC: Table 3, E. coli BW25113 wild type, Mueller-Hinton-II, ~10^5 CFUs/ml, 16–20 h, duplicates (*) or triplicates
Excerpt: as §1, §2

[7] = test system: E. coli BW25113 waaY::kan; assay type: cell-based, Escherichia coli; conditions: Table 3, Mueller-Hinton-II, 16–20 h, duplicates (*) or triplicates
Excerpt: as §1, §2

[8] = test system: E. coli BW25113 waaG::kan; assay type: cell-based, Escherichia coli; conditions: Table 3; BW25113 waaG::kan; Mueller-Hinton-II, 16–20 h; duplicates (*) or triplicates
Excerpt: as §1, §2

[9] = test system: E. coli BW25113 ompT::kan; assay type: cell-based, Escherichia coli; conditions: Table 3; BW25113 ompT::kan; Mueller-Hinton-II, 16–20 h; duplicates (*) or triplicates
Excerpt: as §1, §2

E. coli F632 (R2) = assay type: cell-based, Escherichia coli; conditions: Table 4; E. coli F632 (R2 prototype, rough LPS); triplicates
Excerpt: as §1, §2

S. typhimurium LT2 = assay: MIC testing (CLSI broth microdilution); assay type: cell-based; conditions: Table 6, triplicates
Method: as §2

Y. ruckeri 392/2003 = assay: MIC testing (CLSI broth microdilution); assay type: cell-based; conditions: Table 6, triplicates
Method: as §2

E. coli ATCC25922 = assay type: cell-based, Escherichia coli; conditions: Table 6; E. coli ATCC25922 wild-type; triplicates
Excerpt: as §1, §2

E. coli ATCC25922 ΔwaaC = assay type: cell-based, Escherichia coli; conditions: Table 6, triplicates
Excerpt: as §1, §2

E. coli ATCC25922 ΔwaaG = assay type: cell-based, Escherichia coli; conditions: Table 6, triplicates
Excerpt: as §1, §2

E. coli ATCC25922 ΔwaaE = assay type: cell-based, Escherichia coli; conditions: Table 6, triplicates
Excerpt: as §1, §2

E. coli ATCC25922 ΔwaaF = assay type: cell-based, Escherichia coli; conditions: Table 6, triplicates
Excerpt: as §1, §2

[10] = test system: enteropathogenic E. coli EPEC E2348/69 ΔompT; conditions: ref Thomassin et al., 2012; cited from earlier work
Excerpt: (§3) Bacterial pathogens have evolved different mechanisms to resist the antimicrobial activity of cationic AMPs (Peschel and Sahl, [2006]). The production of proteases degrading and thereby inactivating cationic AMPs is one obvious way for bacteria to protect themselves against antimicrobials. Several omptins such as OmpT, and PgtE, all proteases found in the OM of various Gram-negative pathogens belonging to the Enterobacteriaceae family, have been associated with the degradation of AMPs (Hritonenko and Stathopoulos, [2007]). In particular, OmpT has been implicated in the proteolytic degradation ...

[11] = test system: enterohemorrhagic E. coli EHEC EDL933; conditions: ref Thomassin et al., 2012; cited from earlier work
Excerpt: as §3

[12] = test system: uropathogenic E. coli CFT073ΔompT; conditions: ref Brannon et al., 2013; cited from earlier work
Excerpt: as §3

Compound	MIC over all the tested E. coli strains [1] [µg/mL]	MIC [2] [µg/mL]	Antimicrobial activity (MIC) (E. coli F653 (R3)) [µg/mL]	MIC [3]	MIC [4] [µg/mL]	MIC [5] [µg/mL]	MIC [6] [µg/mL]	Antimicrobial activity (MIC) (E. coli F2513 (R4)) [µg/mL]	Antimicrobial activity (MIC) (E. coli F470 (R1)) [µg/mL]	MIC (E. coli BW25113) [µg/mL]	MIC [7] [µg/mL]	MIC [8] [µg/mL]	MIC [9]	Antimicrobial activity (MIC) (E. coli F632 (R2)) [µg/mL]	also measured
CC[C@H](C)[C@H](NC(=O)CN)C(=O)NCC(=O)N[C@@H](C)C(=O)N[C@H](C(=O)N[C@@H](CC(C)C)C(=O)N[C@@H](CCCCN)C(=O)N[C@H](C(=O)N[C@@H](CC(C)C)C(=O)N[C@H](C(=O)N[C@H](C(=O)NCC(=O)N[C@@H](CC(C)C)C(=O)N1CCC[C@H]1C(=O)N[C@@H](C)C(=O)N[C@@H](CC(C)C)C(=O)N[C@H](C(=O)N[C@@H](CO)C(=O)N[C@@H](Cc1c[nH]c2ccccc12)C(=O)N[C@H](C(=O)N[C@@H](CCCCN)C(=O)N[C@@H](CCCNC(=N)N)C(=O)N[C@@H](CCCCN)C(=O)N[C@@H](CCCNC(=N)N)C(=O)N[C@@H](CCC(N)=O)C(=O)N[C@@H](CCC(N)=O)C(N)=O)[C@@H](C)CC)[C@@H](C)CC)[C@@H](C)O)[C@@H](C)O)C(C)C)C(C)C [Melittin]	4 to 32	4 (≈ 1.41 µM)	32	2 ^* μg/ml	4 (≈ 1.41 µM)	4 (≈ 1.41 µM)	4 (≈ 1.41 µM)	4	16	16 to 32	16 to 32	4 (≈ 1.41 µM)	32 ^* μg/ml	32	–
GLRKRLRKFRNKIKEKLKKIGQKIQGLLPKLAPRTDY [Cap18]	4 to 8	4 to 8	4 to 8	4 to 8 µg/mL	4	4	4	2 to 4	4	4 to 8	4 to 8	4	4 to 8 µg/mL	4	Antimicrobial activity: MIC (S. typhimurium LT2): 4 to 8 µg/mL; Antimicrobial activity: MIC (Y. ruckeri 392/2003): 2 to 4 µg/mL; Antimicrobial activity: MIC (E. coli ATCC25922): 4 to 8 µg/mL; Antimicrobial activity: MIC (E. coli ATCC25922 ΔwaaC): 2 to 4 µg/mL; Antimicrobial activity: MIC (E. coli ATCC25922 ΔwaaG): 4 µg/mL; Antimicrobial activity: MIC (E. coli ATCC25922 ΔwaaE): 4 µg/mL; Antimicrobial activity (MIC) (E. coli BW25113; Table 4, E. coli BW25113 (K12 core type), triplicates): 4 to 8 µg/mL; Antimicrobial activity: MIC (E. coli ATCC25922 ΔwaaF): 2 to 4 µg/mL
LL-37	–	–	–	–	–	–	–	–	–	–	–	–	–	–	decrease in MIC in the ΔompT mutant compared to parental EPEC E2348/69 (factor) [10]: unchanged; decrease of MIC by loss of OmpT in EHEC EDL933 (factor) [11]: 2; change of MIC in CFT073ΔompT compared to wild-type CFT073 [12]: unchanged
